Measured values as given in ChEMBL document CHEMBL1201862, “PubChem BioAssay data set” (2004).
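Cells were grown in 96-well plates and exposed to each compound for 48 hours at five concentrations; endpoints were interpolated linearly between bracketing concentrations, or set to the highest concentration if not reached. GI50 = concentration required for 50% inhibition of growth.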 Activity calls are given as the source filed them. Rule as the data show it: active = GI50 up to about 1.1 µM and inactive = higher.

Assays:
Experiment in all cases: inhibition of tumour cell growth, NCI panel, 48 h
786-0 = test system: 786-0
A498 = test system: A498
A549 = test system: A549
ACHN = test system: ACHN
BT-549 = test system: BT-549
CAKI-1 = test system: CAKI-1
CCRF-CEM = test system: CCRF-CEM
COLO 205 = test system: COLO 205
DU-145 = test system: DU-145
EKVX = test system: EKVX
HCC 2998 = test system: HCC 2998
HCT-116 = test system: HCT-116
HCT-15 = test system: HCT-15
HL-60 = test system: HL-60
HOP-62 = test system: HOP-62
HOP-92 = test system: HOP-92
HT-29 = test system: HT-29
Hs-578T = test system: Hs-578T
IGROV-1 = test system: IGROV-1
K562 = test system: K562
KM12 = test system: KM12
LOX IMVI = test system: LOX IMVI
M14 = test system: M14
MCF7 = test system: MCF7
MDA-MB-231 = test system: MDA-MB-231
MDA-MB-435 = test system: MDA-MB-435
MDA-N = test system: MDA-N
MOLT-4 = test system: MOLT-4
Malme-3M = test system: Malme-3M
NCI-H226 = test system: NCI-H226
NCI-H23 = test system: NCI-H23
NCI-H460 = test system: NCI-H460
NCI-H522 = test system: NCI-H522
NCI/ADR-RES = test system: NCI/ADR-RES
OVCAR-3 = test system: OVCAR-3
OVCAR-4 = test system: OVCAR-4
OVCAR-5 = test system: OVCAR-5
OVCAR-8 = test system: OVCAR-8
PC-3 = test system: PC-3
RPMI-8226 = test system: RPMI-8226
RXF 393 = test system: RXF 393
SF-268 = test system: SF-268
SF-295 = test system: SF-295
SF-539 = test system: SF-539
SK-MEL-28 = test system: SK-MEL-28
SK-MEL-2 = test system: SK-MEL-2
SK-MEL-5 = test system: SK-MEL-5
SK-OV-3 = test system: SK-OV-3
SN12C = test system: SN12C
SNB-19 = test system: SNB-19
SNB-75 = test system: SNB-75
SR = test system: SR
SW-620 = test system: SW-620
T47D = test system: T47D
TK-10 = test system: TK-10
U-251 = test system: U-251
UACC-257 = test system: UACC-257
UACC-62 = test system: UACC-62
UO-31 = test system: UO-31

C[N+]12CCCCC1C(COc1cccc3cccnc13)CCC2 (stereo not given)
GI50 (786-0): > 100 µM (inactive)
GI50 (A498): > 100 µM (inactive)
GI50 (A549): > 100 µM (inactive)
GI50 (ACHN): > 100 µM (inactive)
GI50 (BT-549): 42 µM (inactive)
GI50 (CAKI-1): > 100 µM (inactive)
GI50 (CCRF-CEM): > 100 µM (inactive)
GI50 (COLO 205): > 100 µM (inactive)
GI50 (DU-145): > 100 µM (inactive)
GI50 (EKVX): > 100 µM (inactive)
GI50 (HCC 2998): > 100 µM (inactive)
GI50 (HCT-116): 61.2 µM (inactive)
GI50 (HCT-15): > 100 µM
GI50 (HL-60): > 100 µM (inactive)
GI50 (HOP-62): 72.9 µM (inactive)
GI50 (HOP-92): 15.9 µM (inactive)
GI50 (HT-29): 53.1 µM (inactive)
GI50 (Hs-578T): > 100 µM (inactive)
GI50 (IGROV-1): 75.5 µM (inactive)
GI50 (K562): 77.4 µM (inactive)
GI50 (KM12): > 100 µM (inactive)
GI50 (LOX IMVI): 93.5 µM (inactive)
GI50 (M14): > 100 µM (inactive)
GI50 (MCF7): > 100 µM (inactive)
GI50 (MDA-MB-231): 91.2 µM (inactive)
GI50 (MDA-MB-435): > 100 µM (inactive)
GI50 (MDA-N): 93.5 µM (inactive)
GI50 (MOLT-4): > 100 µM (inactive)
GI50 (Malme-3M): > 100 µM (inactive)
GI50 (NCI-H226): 59.6 µM (inactive)
GI50 (NCI-H23): > 100 µM (inactive)
GI50 (NCI-H460): 58.6 µM (inactive)
GI50 (NCI-H522): > 100 µM (inactive)
GI50 (NCI/ADR-RES): > 100 µM (inactive)
GI50 (OVCAR-3): 26.6 µM (inactive)
GI50 (OVCAR-4): > 100 µM (inactive)
GI50 (OVCAR-5): > 100 µM (inactive)
GI50 (OVCAR-8): > 100 µM (inactive)
GI50 (PC-3): > 100 µM (inactive)
GI50 (RPMI-8226): 34.4 µM (inactive)
GI50 (RXF 393): > 100 µM (inactive)
GI50 (SF-268): > 100 µM (inactive)
GI50 (SF-295): > 100 µM (inactive)
GI50 (SF-539): > 100 µM (inactive)
GI50 (SK-MEL-28): > 100 µM (inactive)
GI50 (SK-MEL-2): > 100 µM (inactive)
GI50 (SK-MEL-5): 75 µM (inactive)
GI50 (SK-OV-3): > 100 µM (inactive)
GI50 (SN12C): > 100 µM (inactive)
GI50 (SNB-19): > 100 µM (inactive)
GI50 (SNB-75): > 100 µM (inactive)
GI50 (SR): > 100 µM (inactive)
GI50 (SW-620): > 100 µM (inactive)
GI50 (T47D): > 100 µM (inactive)
GI50 (TK-10): > 100 µM (inactive)
GI50 (U-251): > 100 µM (inactive)
GI50 (UACC-257): > 100 µM (inactive)
GI50 (UACC-62): > 100 µM (inactive)
GI50 (UO-31): > 100 µM (inactive)

S=C1Cc2c(-c3ccccc3)cc(-c3ccc(Cl)cc3)nc2-c2ccccc2N1
GI50 (786-0): 1.08 µM (active)
GI50 (A498): 1.62 µM (inactive)
GI50 (A549): 3.17 µM (inactive)
GI50 (ACHN): 1.04 µM (active)
GI50 (BT-549): 5.56 µM (inactive)
GI50 (CAKI-1): 1.36 µM (inactive)
GI50 (CCRF-CEM): 3.08 µM (inactive)
GI50 (COLO 205): 5.57 µM (inactive)
GI50 (DU-145): 13 µM (inactive)
GI50 (EKVX): 2.52 µM (inactive)
GI50 (HCC 2998): 5.07 µM (inactive)
GI50 (HCT-116): 1.85 µM (inactive)
GI50 (HCT-15): 6.84 µM
GI50 (HL-60): 16.9 µM (inactive)
GI50 (HOP-62): 1.39 µM (inactive)
GI50 (HOP-92): 1.72 µM (inactive)
GI50 (HT-29): 2.65 µM (inactive)
GI50 (Hs-578T): 1.32 µM (inactive)
GI50 (IGROV-1): 0.971 µM (active)
GI50 (KM12): 8.75 µM (inactive)
GI50 (LOX IMVI): 3.41 µM (inactive)
GI50 (M14): 3.97 µM (inactive)
GI50 (MCF7): 15.1 µM (inactive)
GI50 (MDA-MB-231): 1.53 µM (inactive)
GI50 (MDA-MB-435): 4.79 µM (inactive)
GI50 (MDA-N): 4.27 µM (inactive)
GI50 (MOLT-4): 3.79 µM (inactive)
GI50 (Malme-3M): 3.33 µM (inactive)
GI50 (NCI-H226): 2.9 µM (inactive)
GI50 (NCI-H23): 2.88 µM (inactive)
GI50 (NCI-H460): 3.27 µM (inactive)
GI50 (NCI-H522): 2.06 µM (inactive)
GI50 (NCI/ADR-RES): 2.38 µM (inactive)
GI50 (OVCAR-3): 3.07 µM (inactive)
GI50 (OVCAR-4): 0.42 µM (active)
GI50 (OVCAR-5): 7.45 µM (inactive)
GI50 (OVCAR-8): 0.982 µM (active)
GI50 (PC-3): 6.14 µM (inactive)
GI50 (RPMI-8226): > 100 µM (inactive)
GI50 (RXF 393): 3.06 µM (inactive)
GI50 (SF-268): 1.89 µM (inactive)
GI50 (SF-295): 3.39 µM (inactive)
GI50 (SF-539): 3.08 µM (inactive)
GI50 (SK-MEL-28): 3.4 µM (inactive)
GI50 (SK-MEL-2): 6.85 µM (inactive)
GI50 (SK-MEL-5): 3.47 µM (inactive)
GI50 (SK-OV-3): 2.38 µM (inactive)
GI50 (SN12C): 1.63 µM (inactive)
GI50 (SNB-19): 1.56 µM (inactive)
GI50 (SNB-75): 0.951 µM (active)
GI50 (SR): > 68.7 µM (inactive)
GI50 (SW-620): 2.94 µM (inactive)
GI50 (T47D): 4.32 µM (inactive)
GI50 (TK-10): 2.12 µM (inactive)
GI50 (U-251): 0.746 µM (active)
GI50 (UACC-257): 4.7 µM (inactive)
GI50 (UACC-62): 2.45 µM (inactive)
GI50 (UO-31): 1.96 µM (inactive)

CCCCCCCCCCC1OC([C@@H](O)CC[C@H](O)C2CC[C@@H](CCCCCCCC(O)CC3=CC(C)OC3=O)O2)CCC1O (stereo not given in full)
GI50 (786-0): 11.5 µM (inactive)
GI50 (A498): > 14.9 µM (inactive)
GI50 (A549): 5.21 µM (inactive)
GI50 (ACHN): 6.38 µM (inactive)
GI50 (BT-549): 12.4 µM (inactive)
GI50 (CAKI-1): 11.7 µM (inactive)
GI50 (CCRF-CEM): 5.97 µM (inactive)
GI50 (COLO 205): 6.85 µM (inactive)
GI50 (DU-145): 14.6 µM (inactive)
GI50 (EKVX): 2.09 µM (inactive)
GI50 (HCC 2998): 8 µM (inactive)
GI50 (HCT-116): 0.148 µM (active)
GI50 (HCT-15): 10.1 µM
GI50 (HL-60): 2.74 µM (inactive)
GI50 (HOP-62): 4.53 µM (inactive)
GI50 (HOP-92): 8.95 µM (inactive)
GI50 (HT-29): 5.4 µM (inactive)
GI50 (Hs-578T): 2.68 µM (inactive)
GI50 (IGROV-1): 2.61 µM (inactive)
GI50 (K562): 0.204 µM (active)
GI50 (KM12): 2.58 µM (inactive)
GI50 (LOX IMVI): 1.27 µM (inactive)
GI50 (M14): 8.04 µM (inactive)
GI50 (MCF7): 6.79 µM (inactive)
GI50 (MDA-MB-231): > 16.3 µM (inactive)
GI50 (MDA-MB-435): 7.24 µM (inactive)
GI50 (MDA-N): 3.57 µM (inactive)
GI50 (Malme-3M): 14 µM (inactive)
GI50 (NCI-H226): 14 µM (inactive)
GI50 (NCI-H23): 0.363 µM (active)
GI50 (NCI-H460): 1.52 µM (inactive)
GI50 (NCI-H522): 5.89 µM (inactive)
GI50 (NCI/ADR-RES): 1.5 µM (inactive)
GI50 (OVCAR-3): 5.64 µM (inactive)
GI50 (OVCAR-4): 8.61 µM (inactive)
GI50 (OVCAR-5): > 15 µM (inactive)
GI50 (OVCAR-8): 3.79 µM (inactive)
GI50 (PC-3): 5.94 µM (inactive)
GI50 (RPMI-8226): 3.59 µM (inactive)
GI50 (RXF 393): > 9.77 µM (inactive)
GI50 (SF-268): 2.35 µM (inactive)
GI50 (SF-295): 0.708 µM (active)
GI50 (SF-539): 14.4 µM (inactive)
GI50 (SK-MEL-28): > 17.9 µM (inactive)
GI50 (SK-MEL-2): 9.08 µM (inactive)
GI50 (SK-MEL-5): 0.115 µM (active)
GI50 (SK-OV-3): 7.67 µM (inactive)
GI50 (SN12C): 9.12 µM (inactive)
GI50 (SNB-19): 9.46 µM (inactive)
GI50 (SNB-75): 3.41 µM (inactive)
GI50 (SR): 0.0025 µM (active)
GI50 (SW-620): > 17.9 µM (inactive)
GI50 (T47D): 7.71 µM (inactive)
GI50 (TK-10): 11.7 µM (inactive)
GI50 (U-251): 14.4 µM (inactive)
GI50 (UACC-257): 0.622 µM (active)
GI50 (UACC-62): 4.72 µM (inactive)
GI50 (UO-31): 4.41 µM (inactive)
